These results are taken from ChEMBL document CHEMBL1155322, “Pharmacophore modeling and virtual screening for the discovery of new transforming growth factor-beta type I receptor (ALK5) inhibitors” (Eur J Med Chem, 2009).

For orientation: IC50 means the concentration at which inhibition is half-maximal. A low value points to higher potency.

The experiment deals with T1, TGF-beta receptor type-1 (Homo sapiens, UniProt P36897).
T1 sequence (P36897 whole entry): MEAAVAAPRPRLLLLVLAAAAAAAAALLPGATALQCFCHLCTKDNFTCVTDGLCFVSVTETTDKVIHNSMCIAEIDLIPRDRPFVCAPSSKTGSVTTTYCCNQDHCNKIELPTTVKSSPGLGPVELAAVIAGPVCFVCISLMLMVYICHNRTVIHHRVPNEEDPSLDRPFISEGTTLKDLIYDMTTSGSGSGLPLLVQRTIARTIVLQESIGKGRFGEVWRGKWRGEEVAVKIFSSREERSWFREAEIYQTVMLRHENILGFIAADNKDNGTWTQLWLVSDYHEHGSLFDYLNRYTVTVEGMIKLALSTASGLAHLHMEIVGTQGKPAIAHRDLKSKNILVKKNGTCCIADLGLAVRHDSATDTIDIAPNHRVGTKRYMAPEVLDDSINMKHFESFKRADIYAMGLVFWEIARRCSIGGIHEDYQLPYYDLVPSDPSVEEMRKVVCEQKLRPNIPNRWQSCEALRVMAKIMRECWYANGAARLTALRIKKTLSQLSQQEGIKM
`Cc1cccc(-c2[nH]c(NCc3ccc(C#N)cc3)nc2-c2ccc3c(c2)OCO3)n1` showed an IC50 of 24 nM. This counts as double-digit nanomolar.

In the case of `Fc1ccc(-c2nn3c(c2-c2ccnc4ccccc24)CCC3)nc1`, 151 nM corresponded to half-maximal inhibition (IC50). This IC50 is about 6.3-fold higher than that of the molecule before. Under `CCc1[nH]c(-c2ccc(OC)cc2)nc1-c1ccncc1` [SB-202474] stands 30000 nM; under `COC(=O)Nc1ccc2c(-c3c(-c4ccccn4)nn4c3CCC4)ccnc2c1`, 40 nM; under `COCCC(=O)Nc1ccc2c(-c3c(-c4ccccn4)nn4c3CCC4)ccnc2c1`, 34 nM. In the case of `CCc1cccc(-c2[nH]c(CNc3ccc(C(N)=O)cc3)nc2-c2ccc3c(c2)OCO3)n1`, 46 nM corresponded to half-maximal inhibition (IC50). The IC50 values of the last two molecules are within 1.5-fold of each other. `CCc1cccc(-c2nn3c(c2-c2ccnc4ccccc24)CCC3)n1` had a half-maximal inhibitory concentration (IC50) of 71 nM.

The molecule `Cc1cccc2ccc(-c3sc(N)nc3-c3ccccn3)nc12` had a half-maximal inhibitory concentration (IC50) of 30 nM. Next, `CN(C)CCNC(=O)Nc1ccc2c(-c3c(-c4ccccn4)nn4c3CCC4)ccnc2c1`: 18 nM; `O=C(O)c1ccc(-c2cc(-c3c[nH]nc3-c3ccccn3)ccn2)cc1`: 27 nM. Under `Cc1cccnc1-c1nc(N)sc1-c1ccc2ncccc2n1` stands 6 nM. Under `Cc1cccc(-c2[nH]c(CNc3ccc(C(N)=O)cc3)nc2-c2ccc3c(c2)OCO3)n1` stands 21 nM; under `Cc1cccc(-c2nn3c(c2-c2ccnc4cc(Cl)ccc24)CCC3)n1`, 48 nM; under `c1ccc(-c2n[nH]cc2-c2ccc3ncccc3n2)nc1`, 19 nM.

`C#Cc1cccc(NCc2nc(-c3ccc4nccnc4c3)c(-c3cccc(CC)n3)[nH]2)c1` gave an IC50 of 119 nM. Against the preceding molecule, the IC50 is about 6.3-fold higher. Next, `Nc1nc(-c2ccc(F)cc2)c(-c2ccc3ncccc3n2)s1` [GW785804X]: 11 nM; `CCS(=O)(=O)c1ccc2c(-c3c(-c4ccccn4)nn4c3CCC4)ccnc2c1`: 9290 nM; `Nc1nc(-c2cccc(Cl)n2)c(-c2ccnc3ccccc23)s1`: 1780 nM.

In turn, `CN(C)CCCNC(=O)Nc1ccc2c(-c3c(-c4ccccn4)nn4c3CCC4)ccnc2c1` showed a 50% inhibitory concentration (IC50) of 255 nM.

With `Fc1ccc(C2C(c3ccncc3)NC3SCCN32)cc1` (stereo unspecified), the 50% inhibitory concentration (IC50) turned out to be 50000 nM. Next, `c1ccc(-c2nn3c(c2-c2ccnc4ccccc24)CCC3)nc1`: 104 nM; `CCOc1ccc2c(-c3c(-c4cccc(C)n4)nn4c3CCC4)ccnc2c1`: 88 nM. Molecule `Cc1cccc(-c2[nH]c(CNc3ccc(C#N)cc3)nc2-c2ccc3c(c2)OCO3)n1` showed an IC50 of 46 nM. Under `Nc1ccc2c(-c3c(-c4ccccn4)nn4c3CCC4)ccnc2c1` stands 59 nM; under `CCSc1ccc2c(-c3c(-c4ccccn4)nn4c3CCC4)ccnc2c1`, 110 nM; under `CC(=O)Nc1ccc2c(-c3c(-c4ccccn4)nn4c3CCC4)ccnc2c1`, 87 nM.

Molecule `c1ccc(-c2n[nH]cc2-c2ccnc(-c3ccc(CNC4CCCOC4)cc3)c2)nc1` (stereo unspecified) registered a half-maximal inhibitory concentration (IC50) of 47 nM. Molecule `CN(C)CC(=O)Nc1ccc2c(-c3c(-c4ccccn4)nn4c3CCC4)ccnc2c1` displayed an IC50 of 64 nM. This IC50 and that of the molecule before are within 1.5-fold of each other.

Molecule `CN(C)CCCc1cccc(-c2cc(-c3c[nH]nc3-c3ccccn3)ccn2)c1` gave a concentration for half-maximal inhibition (IC50) of 15 nM. This IC50 lies about 4.3-fold lower than the previous one. Next, `Cc1cccc(-c2nn3c(c2-c2ccc4c(c2)ncn4C)CCC3)n1`: 1700 nM; `O=C(Nc1ccc2c(-c3c(-c4ccccn4)nn4c3CCC4)ccnc2c1)OCCO`: 79 nM; `CN(C)CCCn1cnc2cc(-c3c(-c4ccccn4)nn4c3CCC4)ccc21`: 398 nM. Next, `C#Cc1ccc(NCc2nc(-c3ccc4c(c3)OCO4)c(-c3cccc(C)n3)[nH]2)cc1`: 174 nM. `Nc1nc(-c2cccc(Cl)c2)c(-c2ccc3ncccc3n2)s1` [GW780159X] showed an IC50 of 13 nM. `O=C(CCO)Nc1ccc2c(-c3c(-c4ccccn4)nn4c3CCC4)ccnc2c1` yielded a half-inhibitory concentration (IC50) of 32 nM. Under `C#Cc1ccc(CNc2nc(-c3ccc4c(c3)OCO4)c(-c3cccc(C)n3)[nH]2)cc1` stands 153 nM.
